“Also recorded” adds a separate entry of the source.
Experiments:
DGKζ = DGKζ (Homo sapiens (Human), UniProt Q13574); assay: In vitro DGKζ inhibition assay (ADP-Glo); type: biochemical; conditions: 0.4 nM DGKζ, 30 μM ATP, 20 μM DLG
Experimental: (§1) The DGKα and DGKζ biochemical reactions were performed using His-tagged human recombinant enzymes (Signal Chem, DGKα, #D21-10BH; DGKζ, #D30-10H)) and DLG (Dilauroyl-sn-glycerol) lipid substrate (Signal Chem, #D430-59). ADP-Glo assay was performed using ADP-Glo™ kinase Assay kit (Promega, #V9104). The reactions were carried out in assay buffer containing 40 mM Tris, pH 7.5, 0.1% CHAPS, 0.1% Prionex, 40 mM NaCl, 5 mM MgCl2, 1 mM CaCl2, and 1 mM DTT. DGKα reactions contained 0.1 nM DGKα, 50 μM ATP, and 20 μM DLG. And DGKζ reactions contained 0.4 nM DGKζ, 30 μM ATP, and 20 μM DLG.
(§2) For compound inhibition studies, 40 nL test compound in DMSO was added to wells of white polystyrene plates in 384-well (Greiner, #784075) or 1536-well format (Greiner, #782075). Compounds were added with top concentration of 2 mM with 11 point, 3-fold dilution series. Enzyme solution (contains 2×DGK enzyme concentration in 1× assay buffer) was added to the plate in 2 μL/well volume, followed by 2 μL/well of substrate solution (contains 2× concentration of ATP and DLG substrate in 1× assay buffer). Plates were then centrifuged for 1 min at 1200 RPM and sealed or lidded. For 4 μL reaction volume, test compounds were therefore diluted 100× to final top concentration of 20 μM. After 90 minute incubation, reactions were quenched by addition of 2 μL/well Promega ADP-Glo Reagent, followed by centrifugation and lidding. After 60 min incubation, 2 μL/well Promega Kinase Detection Reagent was added, plates centrifuged, and incubated for 30 min. Plates were then read using Luminescence method on BMG PHERAstar FSX plate reader. Percent inhibition was calculated and IC50s were determined using 4-parameter fit in Genedata Screener. Labcyte Echo acoustic dispenser was used for compound addition, and Formulatrix Tempest liquid handler was used for all reagent dispenses.

[1] = system: MC38 syngeneic tumor model; assay: MC38 syngeneic tumor model, DGK inhibitor plus anti-PD-1 (RMP1-14); type: in vivo, C57Bl/6 mice; conditions: FIGS. 9A-9B, listed as Compound 3
Experimental: The in vivo effect of combining Compound 1 plus anti-PD-1 (RMP1-14, Bio X Cell) was assessed in the MC38 (CRL-1642, ATCC, Manassas, VA) syngeneic tumor model (see FIG. 3) in 6 to 8 weeks old C57Bl/6 mice (Jackson laboratories). Compound 1 was suspended in 5% N,N-dimethylacetamide (DMAC)+50 mM Citrate buffer in 0.5% methyl cellulose for oral administration and RMP1-14 was suspended in saline for intraperitoneal administration. Briefly, the left flank of the mice was shaved the day prior to subcutaneous inoculation with 2×10^6 MC38 cells suspended in PBS. On day 7, tumor dimensions were measured by Vernier calipers, and volume estimated by the formula Volume=[L (long dimension)×W^2 (short dimension)]/2. Mice were randomized into 6 groups of 10 mice of approximate mean volume (˜160 mm^3). Tumors were measured 3 times per week for the duration of the study. Starting day 7, mice were dosed with (i) vehicle; (ii) 250 μg/mouse of RMP1-14; (iii) 10 mg/kg of Compound 1; (iv) 1 mg/kg of Compound 1; (v) 10 mg/kg of Compound 1 and 250 μg/mouse of RMP1-14; or (vi) 1 mg/kg of Compound 1 and 250 μg/mouse of RMP1-14. Compound 1 was administered orally once daily (QD) for 12 days, while RMP1-14 was dosed every 5 days (for a total of 3 doses).
The in vivo effect of combining Compound 2 plus anti-PD-1 (RMP1-14, Bio X Cell) was assessed in the MC38 (CRL-1642, ATCC, Manassas, VA) syngeneic tumor model in 6 to 8 weeks old C57Bl/6 mice (Jackson laboratories). Compound 2 was suspended in 5% N,N-dimethylacetamide (DMAC)+50 mM Citrate buffer in 0.5% methyl cellulose for oral administration and RMP1-14 was suspended in saline for intraperitoneal administration. Briefly, the left flank of the mice was shaved the day prior to subcutaneous inoculation with 2×10^6 MC38 cells suspended in PBS. On day 7, tumor dimensions were measured by Vernier calipers, and volume estimated by the formula Volume=[L (long dimension)×W^2 (short dimension)]/2. Mice were randomized into 6 groups of 10 mice of approximate mean volume (˜130 mm^3). Tumors were measured 3 times per week for the duration of the study. Starting day 7, mice were dosed with (i) vehicle; (ii) 250 μg/mouse of RMP1-14 (Anti-PD-1); (iii) 0.5 mg/kg of Compound 2 QD; (iv) 0.5 mg/kg of Compound 2 […] and 250 μg/mouse of RMP1-14; (v) 0.5 mg/kg of Compound 2 Q2D; (vi) 0.5 mg/kg of Compound 2 […] and 250 μg/mouse of RMP1-14; (vii) 1.5 mg/kg of Compound 2 QD; (viii) 1.5 mg/kg of Compound 2 QD and 250 μg/mouse of RMP1-14 (ix) 1.5 mg/kg of Compound 2 Q2D; (x) 1.5 mg/kg of Compound 2 Q2D and 250 μg/mouse of RMP1-14; (xi) 1.5 mg/kg of Compound 2 Q3D; or (xii) 1.5 mg/kg of Compound 2 Q3D and 250 μg/mouse of RMP1-14.
The in vivo effect of combining 2-(4-((2S,5R)-4-(bis(4-fluorophenyl)methyl)-2,5-dimethylpiperazin-1-yl)-1H-[1,2,4]triazolo[3,4-b]purin-1-yl)-N,N-dimethylethane-1-amine (i.e., Compound 3) plus anti-PD-1 (RMP1-14, Bio X Cell) was assessed in the MC38 (CRL-1642, ATCC, Manassas, VA) syngeneic tumor model in 6 to 8 weeks old C57Bl/6 mice (Jackson laboratories). Compound 3 was suspended in 5% N,N-dimethylacetamide (DMAC)+50 mM Citrate buffer in 0.5% methyl cellulose for oral administration and RMP1-14 was suspended in saline for intraperitoneal administration. Briefly, the left flank of the mice was shaved the day prior to subcutaneous inoculation with 2×10^6 MC38 cells suspended in PBS. On day 7, tumor dimensions were measured by Vernier calipers, and volume estimated by the formula Volume=[L (long dimension)×W^2 (short dimension)]/2. Mice were randomized into 6 groups of 10 mice of approximate mean volume (˜200 mm^3). Tumors were measured 3 times per week for the duration of the study. Starting day 7, mice were dosed with (i) vehicle; (ii) 250 μg/mouse of RMP1-14 (Anti-PD-1); (iii) 10 mg/kg of Compound 3 QD; (iv) 10 mg/kg of Compound 3 QD and 250 μg/mouse of RMP1-14; (v) 30 mg/kg of Compound 3 QD; or (vi) 30 mg/kg of Compound 3 QD and 250 μg/mouse of RMP1-14.

DGKα = DGKα (Homo sapiens (Human), UniProt P23743); assay: In vitro DGKα inhibition assay (ADP-Glo); type: biochemical; conditions: 0.1 nM DGKα, 50 μM ATP, 20 μM DLG
Chain of DGKα (P23743 whole entry): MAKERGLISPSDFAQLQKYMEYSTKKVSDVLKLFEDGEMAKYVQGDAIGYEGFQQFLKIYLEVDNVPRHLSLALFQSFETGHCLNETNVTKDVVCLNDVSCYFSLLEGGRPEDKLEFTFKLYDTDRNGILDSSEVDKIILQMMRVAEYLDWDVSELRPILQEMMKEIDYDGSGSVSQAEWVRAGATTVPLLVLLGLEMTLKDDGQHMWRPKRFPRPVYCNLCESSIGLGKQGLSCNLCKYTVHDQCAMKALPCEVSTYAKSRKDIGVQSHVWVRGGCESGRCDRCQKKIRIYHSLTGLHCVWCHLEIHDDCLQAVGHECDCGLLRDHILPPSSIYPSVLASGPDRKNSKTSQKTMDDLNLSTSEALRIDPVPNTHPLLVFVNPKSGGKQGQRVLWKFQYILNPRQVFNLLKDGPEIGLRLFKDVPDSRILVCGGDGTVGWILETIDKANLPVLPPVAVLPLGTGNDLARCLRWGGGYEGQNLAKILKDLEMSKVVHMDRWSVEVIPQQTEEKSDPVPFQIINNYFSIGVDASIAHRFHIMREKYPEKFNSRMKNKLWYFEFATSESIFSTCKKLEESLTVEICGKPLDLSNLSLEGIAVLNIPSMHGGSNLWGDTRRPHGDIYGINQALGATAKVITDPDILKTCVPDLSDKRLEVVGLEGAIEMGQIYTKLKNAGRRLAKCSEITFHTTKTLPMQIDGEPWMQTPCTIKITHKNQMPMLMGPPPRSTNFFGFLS
Experimental: as §1, §2

Chain of DGKζ (Q13574 whole entry): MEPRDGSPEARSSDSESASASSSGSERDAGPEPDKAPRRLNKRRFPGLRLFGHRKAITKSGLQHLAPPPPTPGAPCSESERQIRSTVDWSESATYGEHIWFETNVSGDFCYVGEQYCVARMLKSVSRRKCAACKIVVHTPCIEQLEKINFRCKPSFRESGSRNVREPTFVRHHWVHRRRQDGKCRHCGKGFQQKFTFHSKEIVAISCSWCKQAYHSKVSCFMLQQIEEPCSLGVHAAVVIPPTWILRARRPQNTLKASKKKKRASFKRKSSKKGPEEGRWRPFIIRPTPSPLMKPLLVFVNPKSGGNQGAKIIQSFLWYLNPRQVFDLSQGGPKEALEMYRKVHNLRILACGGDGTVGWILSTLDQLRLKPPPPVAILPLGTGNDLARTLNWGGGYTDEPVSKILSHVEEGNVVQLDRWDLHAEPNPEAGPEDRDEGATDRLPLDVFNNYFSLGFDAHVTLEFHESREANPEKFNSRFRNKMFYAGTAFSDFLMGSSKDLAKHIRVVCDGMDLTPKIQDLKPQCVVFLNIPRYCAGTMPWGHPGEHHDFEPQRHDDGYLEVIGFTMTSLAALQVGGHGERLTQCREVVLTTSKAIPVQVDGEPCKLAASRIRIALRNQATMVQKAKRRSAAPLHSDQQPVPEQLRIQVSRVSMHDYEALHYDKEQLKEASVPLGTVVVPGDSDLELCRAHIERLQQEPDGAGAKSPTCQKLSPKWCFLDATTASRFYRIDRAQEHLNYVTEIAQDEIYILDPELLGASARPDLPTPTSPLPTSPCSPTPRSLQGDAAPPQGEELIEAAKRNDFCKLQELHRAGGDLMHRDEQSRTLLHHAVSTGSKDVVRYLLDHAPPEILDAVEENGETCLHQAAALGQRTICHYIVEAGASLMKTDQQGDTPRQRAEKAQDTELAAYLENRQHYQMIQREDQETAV

C[C@@H]1CN(c2nc3nncn3c3c2ncn3CCN(C)C)[C@@H](C)CN1C(c1ccc(F)cc1)c1ccc(F)cc1 [Example 24, 2-(4-((2S,5R)-4-(Bis(4-fluorophenyl)methyl)-2,5-dimethylpiperazin-1-yl)-1H-[1,2,4]triazolo[3,4-b]purin-1-yl)-N,N-dimethylethane-1-amine]
IC50 (DGKζ): ≤ 20 nM | TGI, combined with anti-PD-1 mAb, vs anti-PD-1 control group ([1]; 30 mg/kg Compound 3 QD and 250 μg/mouse RMP1-14): statistically significant; also recorded: significant TGI | TGI vs vehicle control group ([1]; all groups treated with Compound 3: 10 or 30 mg/kg QD, alone or with 250 μg/mouse RMP1-14): Tumor growth inhibition of Compound 3 was observed for all groups; also recorded: statistically significant TGI | IC50 (DGKα): ≤ 20 nM

Source: patent publication US20250186450A1, “COMBINATION THERAPY COMPRISING DGK INHIBITORS and PD-1/PD-L1 INHIBITORS” (Incyte Corporation, priority 2023, published 2025)
